Source: ChEMBL document CHEMBL5325395, “Design, synthesis and anti-ovarian cancer activities of thieno[2,3-d]pyrimidine based chimeric BRD4 inhibitor/nitric oxide-donator” (Eur J Med Chem, 2023)
The source made the active and inactive calls. No cut-off for these calls is given here.

Assays:
SK-OV-3 [1] = assay: Antiproliferative activity against human SK-OV-3 cells assessed as reduction in cell viability incubated for 24 hrs by CCK8 assay; assay type: functional, cell-based; conditions: SK-OV-3, 24 h
[2] = Induction of NO release in phosphate buffer at 24 hrs by Griess reagent based spectrophotometer analysis; assay type: functional
[3] = Induction of NO release in phosphate buffer at 2 hrs by Griess reagent based spectrophotometer analysis; assay type: functional
[4] = molecular target: Bromodomain-containing protein 4 (Homo sapiens, UniProt O60885); assay: Inhibition of BRD4 (unknown origin)
[5] = Induction of NO release in phosphate buffer at 1 hr by Griess reagent based spectrophotometer analysis; assay type: functional
[6] = Induction of NO release in phosphate buffer at 4 hrs by Griess reagent based spectrophotometer analysis; assay type: functional
[7] = Induction of NO release in phosphate buffer at 6 hrs by Griess reagent based spectrophotometer analysis; assay type: functional
[8] = Induction of NO release in phosphate buffer at 3 hrs by Griess reagent based spectrophotometer analysis; assay type: functional
SW626 = assay: Antiproliferative activity against human SW626 cells assessed as reduction in cell viability incubated for 24 hrs by CCK8 assay; assay type: functional, cell-based; conditions: SW626, 24 h
[9] = Induction of NO release in phosphate buffer at 0.5 hrs by Griess reagent based spectrophotometer analysis; assay type: functional
OVCAR-3 = assay: Antiproliferative activity against human OVCAR-3 cells assessed as reduction in cell viability incubated for 24 hrs by CCK8 assay; assay type: functional, cell-based; conditions: OVCAR-3, 24 h
ES-2 = assay: Antiproliferative activity against human ES2 cells assessed as reduction in cell viability incubated for 24 hrs by CCK8 assay; assay type: functional, cell-based; conditions: ES-2, 24 h
A2780 = assay: Antiproliferative activity against human A2780 cells assessed as reduction in cell viability incubated for 24 hrs by CCK8 assay; assay type: functional, cell-based; conditions: A2780, 24 h
SK-OV-3 [10] = assay: Induction of autophagy in human SK-OV-3 cells assessed as reduction in cell viability at 1 mmol/L incubated for 24 hrs by CCK8 assay; assay type: functional, cell-based
Mus musculus = assay: In vivo inhibition of BRD4 in BALB/c nude mouse xenografted with human SK-OV-3 cells assessed as reduction in c-Myc expression at 30 mg/kg, ip administered for 19 days by immunohistochemical analysis; assay type: functional, organism-based; conditions: time 19.0 day
SK-OV-3 [11] = assay: Induction of autophagy in human SK-OV-3 cells assessed as reduction in cell viability at 100 nmol/L incubated for 24 hrs by CCK8 assay; assay type: functional, cell-based

Compound | IC50 (SK-OV-3 [1]) | Activity [2] | Activity [3] | IC50 [4] | Activity [5] | Activity [6] | Activity [7] | Activity [8] | IC50 (SW626) | Activity [9] | IC50 (OVCAR-3) | IC50 (ES-2) | IC50 (A2780) | Activity (SK-OV-3 [10]) | inhibition (Mus musculus) | Activity (SK-OV-3 [11])
Cc1cc(-c2nc3sc4c(c3c(=O)[nH]2)CCN(C)C4)cc(C)c1OCCCCCC(=O)OCc1c(-c2ccccc2)no[n+]1[O-] | 1.69 µM | 0.249 µmol/L | 0.068 µmol/L | 1.34 µM | 0.068 µmol/L | 0.066 µmol/L | 0.117 µmol/L | 0.056 µmol/L | 12.5 µM | 0.063 µmol/L | 5.42 µM | 12.8 µM | 9.73 µM | – | – | –
Cc1cc(-c2nc3sc4c(c3c(=O)[nH]2)CCN(C)C4)cc(C)c1OCCCCO[N+](=O)[O-] | 16.9 µM | 0.173 µmol/L | 0.037 µmol/L | 1.89 µM | 0.05 µmol/L | 0.052 µmol/L | 0.065 µmol/L | 0.05 µmol/L | 16.6 µM | 0.03 µmol/L | 15.3 µM | 16.3 µM | 16.9 µM | – | – | –
Cc1cc(-c2nc3sc4c(c3c(=O)[nH]2)CCN(C)C4)cc(C)c1OCCCC(=O)OCc1no[n+]([O-])c1C | 7.93 µM | 0.149 µmol/L | 0.03 µmol/L | 2.26 µM | 0.029 µmol/L | 0.035 µmol/L | 0.036 µmol/L | 0.027 µmol/L | 13.4 µM | 0.023 µmol/L | 5.44 µM | 14.4 µM | 17.3 µM | – | – | –
COc1cc(OC)c2c(=O)[nH]c(-c3cc(C)c(OCCO)c(C)c3)nc2c1 [APABETALONE] | 7.05 µM | – | – | – | – | – | – | – | 8.45 µM | – | 16.9 µM | 8.01 µM | 123 µM | – | – | –
Cc1cc(-c2nc3sc4c(c3c(=O)[nH]2)CCN(C)C4)cc(C)c1OCC(=O)OCc1no[n+]([O-])c1C | 1.62 µM | 0.169 µmol/L | 0.025 µmol/L | 1.21 µM | 0.04 µmol/L | 0.037 µmol/L | 0.042 µmol/L | 0.033 µmol/L | 9.85 µM | 0.028 µmol/L | 3.73 µM | 8.86 µM | 5.39 µM | – | – | –
Cn1cnc(N)c2ncnc1-2 | – | – | – | – | – | – | – | – | – | – | – | – | – | Active | – | –
CCOC(=O)N1CCN(/[N+]([O-])=N/Oc2ccc([N+](=O)[O-])cc2[N+](=O)[O-])CC1 | 18.5 µM | – | – | – | – | – | – | – | > 20 µM | – | > 20 µM | > 20 µM | > 20 µM | – | – | –
Cc1cc(-c2nc3sc4c(c3c(=O)[nH]2)CCN(C)C4)cc(C)c1OCCCCCC(=O)OCc1no[n+]([O-])c1C | 12 µM | 0.154 µmol/L | 0.033 µmol/L | 1.97 µM | 0.03 µmol/L | 0.04 µmol/L | 0.044 µmol/L | 0.036 µmol/L | 5.79 µM | 0.02 µmol/L | 6.89 µM | 4.63 µM | 6.97 µM | – | – | –
Cc1cc(-c2nc3sc4c(c3c(=O)[nH]2)CCN(C)C4)cc(C)c1O | – | – | – | – | – | – | – | – | – | – | – | – | – | – | Active | –
Cc1cc(-c2nc3sc4c(c3c(=O)[nH]2)CCN(C)C4)cc(C)c1OCCCCCCOC(=O)c1no[n+]([O-])c1C | 6.33 µM | 0.154 µmol/L | 0.028 µmol/L | 2.36 µM | 0.027 µmol/L | 0.036 µmol/L | 0.044 µmol/L | 0.026 µmol/L | 12.1 µM | 0.022 µmol/L | 7.04 µM | 4.69 µM | 13.1 µM | – | – | –
Cc1cc(-c2nc3sc4c(c3c(=O)[nH]2)CCN(C)C4)cc(C)c1OCCCCCCO[N+](=O)[O-] | 3.87 µM | 0.166 µmol/L | 0.03 µmol/L | 2.25 µM | 0.038 µmol/L | 0.036 µmol/L | 0.037 µmol/L | 0.03 µmol/L | 17 µM | 0.029 µmol/L | 17.9 µM | 15.8 µM | 14.2 µM | – | – | –
CO/C1=C\C(C)=C\[C@@H](C)[C@@H](O)[C@@H](C)C/C(C)=C/C=C/[C@H](OC)[C@@H]([C@@H](C)[C@@H](O)[C@H](C)[C@@]2(O)C[C@@H](O)[C@H](C)[C@@H](C(C)C)O2)OC1=O | – | – | – | – | – | – | – | – | – | – | – | – | – | – | – | inactive
Cc1cc(-c2nc3sc4c(c3c(=O)[nH]2)CCN(C)C4)cc(C)c1OCCCC(=O)OCc1c(-c2ccccc2)no[n+]1[O-] | 3.18 µM | 0.249 µmol/L | 0.068 µmol/L | 1.71 µM | 0.068 µmol/L | 0.066 µmol/L | 0.117 µmol/L | 0.056 µmol/L | 7.65 µM | 0.063 µmol/L | 13.8 µM | 19 µM | 7.31 µM | – | – | –
